Assay results reported in article PMC6273036, “N-Alkoxyphenylhydroxynaphthalenecarboxamides and Their Antimycobacterial Activity” (Molecules, 2016).
Converted amounts (≈) assume the structure as drawn. Read-outs that look alike come from different tables or passages of the source.

Tests used:
[1] = system: Mycobacterium tuberculosis H37Ra ATCC 25177; assay: In vitro antimycobacterial evaluation (alamarBlue, MIC) against M. tuberculosis; assay type: cell-based; details: 168 h, M. tuberculosis H37Ra ATCC 25177, MIC = 90% or greater (IC90) reduction of growth, 7 days
Procedure: The evaluation of the in vitro antimycobacterial activity of the compounds was performed against Mycobacterium tuberculosis H37Ra ATCC 25177 (MT), M. kansasii DSM 44162 (MK) and M. smegmatis ATCC 700084 (MS), see Table 1. To lower risk and make manipulation in the laboratory easier, surrogate model pathogens for M. tuberculosis can be used in laboratory studies. Avirulent M. tuberculosis strain H37Ra is very closely related to and has similar pathology as human-infecting M. tuberculosis strains, making it a good model for study especially because of the lower risk for laboratory workers. M. kansasii, the most virulent of the NTM, causes nontuberculous mycobacterial lung infections, which are now very common, and can be indistinguishable from tuberculosis. M. smegmatis is an ideal representative of a fast-growing nonpathogenic microorganism, particularly useful in studying basic cellular processes of special relevance to pathogenic mycobacteria. Therefore additionally M. kansasii and M. smegmatis were chosen as model species for screening of prospective antimycobacterial drugs to control mycobacterial diseases. The potency of the compounds was expressed as the minimum inhibitory concentration (MIC) that is defined for mycobacteria as 90% or greater (IC90) reduction of growth in comparison with the control.
Mycobacterium tuberculosis H37Ra ATCC 25177 was grown in Middlebrook broth (MB), supplemented with Oleic-Albumin-Dextrose-Catalase (OADC) supplement (Becton, Dickinson & Comp., Franklin Lakes, NJ, USA) and mycobactin J (2 μg/mL). At log phase growth, a culture sample (10 mL) was centrifuged at 15,000 rpm/20 min using a bench top centrifuge (Model CR 4-12, Jouan Inc., Winchester, VA, USA). Following the removal of the supernatant, the pellet was washed in fresh Middlebrook 7H9GC broth and re-suspended in fresh, ODAC-supplemented MB (10 mL). The turbidity was adjusted to match McFarland standard No. 1 (3 × 10^8 cfu) with MB broth. A further 1:20 dilution of the culture was then performed in MB broth. The antimicrobial susceptibility of M. tuberculosis was investigated in a 96-well plate format. In these experiments, sterile deionised water (300 µL) was added to all outer-perimeter wells of the plates to minimize evaporation of the medium in the test wells during incubation. Each evaluated compound (100 µL) was incubated with M. tuberculosis (100 µL). Dilutions of each compound were prepared in duplicate. For all synthesized compounds, final concentrations ranged from 1000 μg/mL to 8 μg/mL. All compounds were dissolved in DMSO, and subsequent dilutions were made in supplemented MB. The plates were sealed with parafilm and incubated at 37 °C for 7 days. Following incubation, a 10% addition of alamarBlue (AbD Serotec, Kidlington, UK) was mixed into each well, and readings at 570 nm and 600 nm were taken, initially for background subtraction and subsequently after 24 h re-incubation. The background subtraction is necessary for strongly coloured compounds, where the colour may interfere with the interpretation of any colour change. For non-interfering compounds, a blue colour in the well was interpreted as the absence of growth, and a pink colour was scored as growth.
The minimum inhibitory concentration (MIC) was defined as the lowest concentration of the compound at which no visible bacterial growth was observed, i.e., the MIC is the lowest concentration that prevented a visual colour change from blue to pink. MIC is defined for mycobacteria as 90% or greater (IC90) reduction of growth in comparison with the control. The MIC/IC90 value is routinely and widely used in bacterial assays and is a standard detection limit according to the Clinical and Laboratory Standards Institute (CLSI, www.clsi.org). Rifampicin and isoniazid (Sigma-Aldrich) were used as the standards as they are clinically used antimycobacterial drugs.

[2] = system: M. smegmatis ATCC 700084; assay: In vitro antimycobacterial evaluation (broth dilution micro-method, MIC) against M. smegmatis; assay type: cell-based; details: Mycolicibacterium smegmatis, ATCC700084, 72 h; Mycobacterium smegmatis ATCC 700084; MIC = IC90; 3 days incubation, visual
[3] = system: Mycobacterium kansasii DSM 44162; assay: In vitro antimycobacterial evaluation (broth dilution micro-method, MIC) against M. kansasii; assay type: cell-based; details: DSM44162, 168 h, M. kansasii DSM 44162, MIC = IC90, 7 days incubation, visual
[4] = system: Mycobacterium tuberculosis H37Ra ATCC 25177; assay: MTT assay, viability of M. tuberculosis H37Ra; assay type: cell-based; details: at the tested concentration equal to MICs; 7 days; positive result when viability less than 70%
Procedure: The MTT assay is a well-characterized method of assessing cell growth through measurement of respiration. For the purpose of this assay, a positive result was recorded when the MTT measured viability of M. tuberculosis H37Ra was less than 70% after exposure to the MIC of each test compound.
For the MTT (3-(4,5-dimethylthiazol-2-yl)-2,5-diphenyltetrazolium bromide) assay, the outer wells of a 96-well plate were filled with 200 µL of sterile water, and the inner wells were filled with 100 µL of the tested compound at the MIC to be examined. Compounds were prepared as previously stated and diluted in Middlebrook media to achieve the desired concentration. Mycobacterium tuberculosis H37Ra ATCC 25177 was suspended in ODAC supplemented Middlebrook broth at a MacFarland standard of 1.0 and then diluted 1:20, using Middlebrook broth as a diluent. The diluted mycobacteria (100 µL) were added to each well containing the compound to be tested. A negative growth control was composed of 100 µL of DMSO and 100 µL of the media, and the diluted mycobacteria in broth absent of inhibiting compounds were used as a positive growth control. All compounds and controls were prepared in triplicate. Plates were incubated at 37 °C for 7 days. After the incubation period, 10% well volume of MTT reagent was mixed into each well and incubated at 37 °C for 24 h. The reagent and media were then aspirated from the wells, to which 50 µL 99% isopropanol was then added, and the plates were read at 570 nm. The absorbance readings from the cells, grown in the presence of the tested compounds, were compared with uninhibited cell growth (using DMSO as the blank) to determine the relative percent viability. The percent viability was determined through the MTT assay. The percent viability is calculated through comparison of a measured value against that of the uninhibited control: %viability = OD570E/OD570P × 100, where OD570E is the reading from the compound-exposed cells, while OD570P is the reading from the uninhibited cells (positive control). Cytotoxic potential is determined by a percent viability of <70%.

[5] = system: human monocytic leukemia THP-1 cells; assay: In vitro antiproliferative assay (WST-1); details: THP-1, 24 h, read-out: IC50 (antiproliferative activity)
Procedure: Human monocytic leukemia THP-1 cells were used for in vitro antiproliferative assay. Cells were obtained from the European Collection of Cell Cultures (ECACC, Salisbury, UK) and routinely cultured in RPMI 1640 medium supplemented with 10% fetal bovine serum, 2% L-glutamine, 1% penicillin and streptomycin at 37 °C with 5% CO2. Cells were passaged at approximately one-week intervals. Antiproliferative activity of the compounds was determined using a Water Soluble Tetrazolium Salts-1 (WST-1, 2-(4-iodophenyl)-3-(4-nitrophenyl)-5-(2,4-disulfophenyl)-2H-tetrazolium) assay kit (Roche Diagnostics, Mannheim, Germany) according to the manufacturer’s instructions. The tested compounds were dissolved in DMSO and added in five increasing concentrations (0.37, 1.1, 3.3, 10 and 30 μM) to the cell suspension in the culture RPMI 1640 medium. The maximum concentration of DMSO in the assays never exceeded 0.1%. Subsequently, the cells were incubated for 24 h at 37 °C with 5% CO2. For WST-1 assays, cells were seeded into 96-well plates (5 × 10^4 cells/well in 100 μL culture medium) in triplicate in serum-free RPMI 1640 medium, and measurements were taken 24 h after the treatment with the compounds. The median inhibition concentration values, IC50, were deduced through the production of a dose-response curve. All data were evaluated using GraphPad Prism 5.00 software (GraphPad Software, San Diego, CA, USA).

[6] = system: human monocytic leukemia THP-1 cells; details: assessed in this line formerly, read-out: IC50 (antiproliferative activity); cited from earlier work

SMILES | MIC [1] [µM] | MIC [2] [µM] | MIC [3] [µM] | viability of M. tuberculosis H37Ra (MTT) [4] [%] | IC50 [5] [µM] | IC50 [6] [nM]
CCOc1ccccc1NC(=O)c1c(O)ccc2ccccc12 [Compound 3a, N-(2-Ethoxyphenyl)-2-hydroxynaphthalene-1-carboxamide] | 26 (≈ 7.99 µg/mL) | 832 (≈ 256 µg/mL) | 832 (≈ 256 µg/mL) | 30.6 | > 30 | 
CCOc1ccc(NC(=O)c2c(O)ccc3ccccc23)cc1 [Compound 3c] | 26 (≈ 7.99 µg/mL) | 832 (≈ 256 µg/mL) | 104 (≈ 32 µg/mL) | 9.96 | > 30 | 
CCCOc1ccc(NC(=O)c2c(O)ccc3ccccc23)cc1 [Compound 4c, 2-Hydroxy-N-(4-propoxyphenyl)naphthalene-1-carboxamide] | 12 (≈ 3.86 µg/mL) | 398 (≈ 128 µg/mL) | 99 (≈ 31.8 µg/mL) | 5.90 | > 30 | 
CCCCOc1cccc(NC(=O)c2c(O)ccc3ccccc23)c1 [Compound 5b, N-(3-Butoxyphenyl)-2-hydroxynaphthalene-1-carboxamide] | 23 (≈ 7.71 µg/mL) | 381 (≈ 128 µg/mL) | 190 (≈ 63.7 µg/mL) | 7.38 | > 30 | 
CC(C)Oc1ccc(NC(=O)c2c(O)ccc3ccccc23)cc1 [Compound 6c, 2-Hydroxy-N-[4-(prop-2-yloxy)phenyl]naphthalene-1-carboxamide] | 25 (≈ 8.03 µg/mL) | 796 (≈ 256 µg/mL) | 99 (≈ 31.8 µg/mL) | 8.96 | > 30 | 
CCC(C)Oc1cccc(NC(=O)c2c(O)ccc3ccccc23)c1 (stereo not drawn) [Compound 7b, N-[3-(But-2-yloxy)phenyl]-2-hydroxynaphthalene-1-carboxamide] | 23 (≈ 7.71 µg/mL) | 12 (≈ 4.02 µg/mL) | 47 (≈ 15.8 µg/mL) | 7.38 | > 30 | 
CCC(C)Oc1ccc(NC(=O)c2c(O)ccc3ccccc23)cc1 (stereo not drawn) [Compound 7c, N-[4-(But-2-yloxy)phenyl]-2-hydroxynaphthalene-1-carboxamide] | 23 (≈ 7.71 µg/mL) | 12 (≈ 4.02 µg/mL) | 95 (≈ 31.9 µg/mL) | 8.86 | > 30 | 
CCCOc1cccc(NC(=O)c2ccc3ccccc3c2O)c1 [Compound 11b, 1-Hydroxy-N-(3-propoxyphenyl)naphthalene-2-carboxamide] | 24 (≈ 7.71 µg/mL) | 199 (≈ 64 µg/mL) | 49 (≈ 15.7 µg/mL) | 15.13 | 1.37 ± 0.72 | 
CCCCOc1cccc(NC(=O)c2ccc3ccccc3c2O)c1 [Compound 12b, N-(3-Butoxyphenyl)-1-hydroxynaphthalene-2-carboxamide] | 23 (≈ 7.71 µg/mL) | 190 (≈ 63.7 µg/mL) | 47 (≈ 15.8 µg/mL) | 9.96 | 1.8 ± 0.32 | 
CCC(C)Oc1cccc(NC(=O)c2ccc3ccccc3c2O)c1 (stereo not drawn) [Compound 14b, N-[3-(But-2-yloxy)phenyl]-1-hydroxynaphthalene-2-carboxamide] | 23 (≈ 7.71 µg/mL) | 12 (≈ 4.02 µg/mL) | 47 (≈ 15.8 µg/mL) | 9.96 | 1.17 ± 0.38 | 
CC[C@@]1(O)C(=O)OCc2c1cc1n(c2=O)Cc2cc3ccccc3nc2-1 [camptothecin] |  |  |  |  |  | 160 ± 70
